Read-outs that look alike come from different tables or passages of the source.
Experiments:
[1] = Cytotoxicity in mock-infected MT-4 cell cultures, MTT method; type: cell-based; settings: human
Experimental: (§1) The newly synthesized dihydroartemisinin triazole derivatives were evaluated for their inhibitory effects (IC50) on the replication of wild-type HIV-1 (IIIB) and HIV-2 (ROD) in MT-4 cell cultures, in parallel with their cytotoxicities (CC50) using the 3-(4,5-dimethylthiazol-2-yl)-2,5-diphenyl tetrazolium bromide (MTT) method. A series of nucleoside reverse transcriptase inhibitors (NRTIs)—i.e., azidothymidine (AZT), lamivudine (3TC) and didanosine (DDI)—and non-nucleoside reverse transcriptase inhibitors (NNRTIs)—i.e., nevirapine (NVP), efavirenz (EFV), and etravirine (ETR)—were included as reference compounds. The biological results are represented as IC50 and CC50 values in Table 3.

[2] = test system: double reverse transcriptase mutant (K103N; Y181C) HIV-1 strain (RES056); assay: Activity against double reverse transcriptase mutant HIV-1 strain RES056 in MT-4 cell cultures, MTT method; type: cell-based; settings: for IC50: Human immunodeficiency virus 1, MT4, read-out: IC50 HIV-1 Strain RES056; for inhibitory activity against RES056 (in words): K103N, Y181C double RT mutant HIV-1, MT-4 cells
Experimental: as §1
Most of the new triazole analogues of dihydroartemisinin are completely devoid of anti-HIV activity. […] The active molecules were also evaluated for their inhibitory activity against a double reverse transcriptase mutant (K103N; Y181C) HIV-1 strain (RES056). […] Therefore, the active β-tetralone derivatives most probably act via an NNRTI-type mode of action.

HIV-2 (ROD) = assay: Anti-HIV-2 (ROD) activity in MT-4 cell cultures, MTT method; type: cell-based
Experimental: as §1

wild-type HIV-1 (IIIB) = assay: Anti-HIV-1 (IIIB) activity in MT-4 cell cultures, MTT method; type: cell-based; settings: for anti-HIV-1 wild-type activity (in words): MT-4 cells, HIV-1 IIIB
Experimental: as §1

MT-4 cells = assay: Cytotoxicity in mock-infected MT-4 cell cultures, MTT method; type: cell-based; settings: cell culture
Experimental: as §1

[3] = Human immunodeficiency virus 2, MT4, 50% protection of MT-4 cell cultures against virus-induced cytotoxicity, MTT method, read-out: IC50 HIV-2 Strain ROD
[4] = Human immunodeficiency virus 1, IIIB, MT4, 50% protection of MT-4 cell cultures against virus-induced cytotoxicity, MTT method, read-out: IC50 HIV-1 Strain IIIB
[5] = mock-infected MT-4 cells, concentration reducing viability of mock-infected MT-4 cell cultures by 50%, MTT method, read-out: CC50
[6] = Human immunodeficiency virus 2, MT4, read-out: IC50 HIV-2 Strain ROD
[7] = concentration reducing viability of mock-infected MT-4 cell cultures by 50%, MTT method, read-out: CC50

| melting point [°C] | SMILES | IC50 [2] [µM] | IC50 (HIV-2 (ROD); [3]) [µM] | IC50 (wild-type HIV-1 (IIIB); [4]) [µM] | CC50 [1, 5] [µM] | anti-HIV-1 wild-type activity (in words) (wild-type HIV-1 (IIIB)) | inhibitory activity against RES056 (in words) [2] | IC50 (HIV-2 (ROD); [6]) [µM] | further results |
| --- | --- | --- | --- | --- | --- | --- | --- | --- | --- |
| 80 to 81 | COc1cc(Cn2nnc3c2CCC(C(=O)O[C@@H]2O[C@@H]4O[C@@]5(C)CCC6[C@H](C)CC[C@@H]([C@H]2C)[C@]64OO5)C3)cc(OC)c1OC (stereo partly drawn) |  |  |  |  |  |  |  |  |
| 105 to 106 | C[C@H]1[C@H](OCCn2nncc2-c2ccc(Br)c(Br)c2)O[C@@H]2O[C@@]3(C)CCC4[C@H](C)CC[C@@H]1[C@]42OO3 (stereo partly drawn) |  |  |  |  |  |  |  |  |
| 96 to 97 | C[C@H]1[C@H](OCCn2nnc3c2C[C@@H]2CC[C@@H]4[C@H](CC[C@]5(C)[C@@H](O)CC[C@@H]45)[C@@]2(C)C3)O[C@@H]2O[C@@]3(C)CCC4[C@H](C)CC[C@@H]1[C@]42OO3 (stereo partly drawn) |  |  |  |  |  |  |  |  |
|  | Cc1cn([C@H]2C[C@H](N=[N+]=[N-])[C@@H](CO)O2)c(=O)[nH]c1=O [Azidothymidine, azidothymidine, reference compound] | 0.0071 | 0.0082 | 0.0064 |  |  |  |  | CC50 [1]: > 7.5 µM |
|  | C[C@H]1[C@H](OCCn2nnc3c2-c2ccccc2CC3)O[C@@H]2O[C@@]3(C)CCC4[C@H](C)CC[C@@H]1[C@]42OO3 (stereo partly drawn) [Compound 8a, 1-(2-(((3R,6R,8aS,9R,10R,12R,12aR)-3,6,9-Trimethyldecahydro-12H-3,12-epoxy[1,2]dioxepino[4,3-i]isochromen-10-yl)oxy)ethyl)-4,5-dihydro-1H-naphtho[1,2-d][1,2,3]triazole] |  | > 10.3 | > 10.3 | > 10.3 | did not show any activity |  |  |  |
|  | COc1cc2c(cc1OC)-c1nnn(CCO[C@@H]3O[C@@H]4O[C@@]5(C)CCC6[C@H](C)CC[C@@H]([C@H]3C)[C@]64OO5)c1CC2 (stereo partly drawn) [Compound 8c, 7,8-Dimethoxy-3-(2-(((3R,6R,8aS,9R,10R,12R,12aR)-3,6,9-trimethyldecahydro-12H-3,12-epoxy[1,2]dioxepino[4,3-i]isochromen-10-yl)oxy)ethyl)-4,5-dihydro-3H-naphtho[1,2-d][1,2,3]triazole] | > 21.2 |  | 4.06 | 21.2 | inhibitory to HIV-1 replication | completely lose their inhibitory activity | > 21.2 | cytotoxicity (in words) (MT-4 cells): limited cytotoxicity |
|  | COc1ccc2c(c1)-c1nnn(CCO[C@@H]3O[C@@H]4O[C@@]5(C)CCC6[C@H](C)CC[C@@H]([C@H]3C)[C@]64OO5)c1CC2 (stereo partly drawn) [Compound 8e, 8-Methoxy-3-(2-(((3R,6R,8aS,9R,10R,12R,12aR)-3,6,9-trimethyldecahydro-12H-3,12-epoxy[1,2]dioxepino[4,3-i]isochromen-10-yl)oxy)ethyl)-4,5-dihydro-3H-naphtho[1,2-d][1,2,3]triazole] | > 14.9 |  | 5.18 | 14.9 | inhibitory to HIV-1 replication | completely lose their inhibitory activity | > 14.9 | cytotoxicity (in words) (MT-4 cells): limited cytotoxicity |
|  | O=c1[nH]cnc2c1ncn2[C@H]1CC[C@@H](CO)O1 [Didanosine, didanosine, reference compound] |  | 82.1 | 76 |  |  |  |  | CC50 [1]: > 212 µM |
|  | O=C1Nc2ccc(Cl)cc2[C@@](C#CC2CC2)(C(F)(F)F)O1 [Efavirenz, efavirenz] | 0.18 | > 6.3 | 0.0024 |  |  | only slightly affected |  | CC50 [1, 7]: > 6.3 µM |
|  | Cc1cc(C#N)cc(C)c1Oc1nc(Nc2ccc(C#N)cc2)nc(N)c1Br [Etravirine, etravirine] | 0.045 |  |  | 2.29 |  | only slightly affected | > 2.29 | IC50 (wild-type HIV-1 (IIIB); Human immunodeficiency virus 1, MT4, read-out: IC50 HIV-1 Strain IIIB): 0.0034 µM |
|  | Nc1ccn([C@@H]2CS[C@H](CO)O2)c(=O)n1 [Lamivudine, lamivudine, reference compound] |  | 9.9 | 2.53 |  |  |  |  | CC50 [1]: > 87.2 µM |
|  | Cc1ccnc2c1NC(=O)c1cccnc1N2C1CC1 [Nevirapine, nevirapine] | > 15 | > 15 | 0.075 |  |  | completely lose their inhibitory activity |  | CC50 [1, 7]: > 15 µM |

| SMILES | melting point [°C] | IC50 [2] [µM] | IC50 (HIV-2 (ROD); [3]) [µM] | IC50 (wild-type HIV-1 (IIIB); [4]) [µM] | CC50 [1, 5] [µM] | anti-HIV-1 wild-type activity (in words) (wild-type HIV-1 (IIIB)) | inhibitory activity against RES056 (in words) [2] | IC50 (HIV-2 (ROD); [6]) [µM] | further results |
| --- | --- | --- | --- | --- | --- | --- | --- | --- | --- |
| C[C@H]1[C@H](OCCn2nnc3c2CCc2ccccc2-3)O[C@@H]2O[C@@]3(C)CCC4[C@H](C)CC[C@@H]1[C@]42OO3 (stereo partly drawn) [Compound 8b, 3-(2-(((3R,6R,8aS,9R,10R,12R,12aR)-3,6,9-Trimethyldecahydro-12H-3,12-epoxy[1,2]dioxepino[4,3-i]isochromen-10-yl)oxy)ethyl)-4,5-dihydro-3H-naphtho[1,2-d][1,2,3]triazole] | 104 to 105 | > 31.5 |  | 2.78 | 31.5 | inhibitory to HIV-1 replication | completely lose their inhibitory activity | > 31.5 | cytotoxicity (in words) (MT-4 cells): limited cytotoxicity |

Source: PMC6155659, “Application of the Triazolization Reaction to Afford Dihydroartemisinin Derivatives with Anti-HIV Activity” (Molecules : A Journal of Synthetic Chemistry and Natural …, 2017)
